Reference: patent US6825209B2, “Compounds having unique CB1 receptor binding selectivity and methods for their production and use” (Research Triangle Institute, priority 2002, dated 2004)
pEC50, pKi: −log10 of the molar value. Where two headings read alike, the source gives them in different places. Marks after values point to notes of the source that are not given here.

How the values were obtained:
human CB1 receptor = target: T1, human CB1 receptor (Homo sapiens, UniProt P21554); experiment: Radioligand displacement in human CB1 receptor-transfected cells (HEK-293); format: binding
T1 construct: expressed in transfected cells; host or cells: HEK-293
T1 sequence (P21554 whole entry): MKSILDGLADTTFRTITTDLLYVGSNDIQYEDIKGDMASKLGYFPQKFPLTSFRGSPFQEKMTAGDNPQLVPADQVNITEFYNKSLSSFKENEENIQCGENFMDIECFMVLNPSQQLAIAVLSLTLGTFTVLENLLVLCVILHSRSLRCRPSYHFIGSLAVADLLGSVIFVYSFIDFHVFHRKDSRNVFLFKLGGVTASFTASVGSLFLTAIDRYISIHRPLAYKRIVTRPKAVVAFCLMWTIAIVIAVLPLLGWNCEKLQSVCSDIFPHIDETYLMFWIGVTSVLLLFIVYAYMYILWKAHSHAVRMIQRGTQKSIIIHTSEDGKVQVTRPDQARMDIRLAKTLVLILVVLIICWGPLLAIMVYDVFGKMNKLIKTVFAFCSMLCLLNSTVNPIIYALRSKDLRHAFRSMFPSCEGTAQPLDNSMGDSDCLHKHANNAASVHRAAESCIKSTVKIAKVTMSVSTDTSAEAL
How it was run: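 Radioligand displacement was run on HEK-293 cells expressing human CB1, with incubation and separation as for rat brain membranes. IC50 values came from one- or two-site nonlinear regression and were converted to Ki by Cheng-Prusoff.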

[1] = target: T2, CB1 (human) clone receptors (Homo sapiens, UniProt P21554); experiment: GTP-γ-[35S] binding in CB1 (human) clone receptors; format: biochemical; details: assay run in CB1 (human) clone receptors
T2 construct: expressed in transfected cells
T2 sequence (P21554 whole entry): as above
Description: Cannabinoid receptor-mediated alteration in GTP-γ-[^35S] binding. In addition to assessing CB1 and CB2 receptor affinities, all of the compounds have been screened in the GTP-γ-[^35S] assay to begin characterization of the compounds as agonists, partial agonists, antagonists or inverse agonists.
Introduction. The purpose of this assay was to characterize the functional activity of lead compounds identified by the radioligand competition binding assays described above. Data from the GTP-γ-[^35S] binding assay was used to determine if a compound was an agonist, antagonist or inverse agonist at G-protein-linked cannabinoid receptors. Agonist binding to a G-protein-linked receptor results in an increased affinity of the G-protein α-subunit for GTP relative to GDP. Eventually, an active αGTP complex forms to complete the stimulus-effector coupling. The α-subunit has intrinsic GTPase activity which generates a free α-subunit which can recombine with the β- and γ-subunits readying the G-protein for another signal transduction cycle. […]
Methods. Binding was determined using membrane homogenates from whole brain The assays were conducted as previously described (Sim et al. 1996) on brain tissue prepared as described above. […] Nonspecific binding was determined in the presence of 100 μM unlabeled GTP-γ-S (0.05 mL). […] Specific binding was calculated as total binding-nonspecific binding.

human CB2 receptor = target: T3, human CB2 receptor (Homo sapiens, UniProt P34972); experiment: Displacement of 3H-CP55,940 in human CB2 receptor-transfected cells (CHO-K1); format: binding; details: radioligand 3H-CP55940, Tables 6 and 7
T3 construct: expressed in transfected cells; host or cells: CHO-K1
T3 sequence (P34972 whole entry): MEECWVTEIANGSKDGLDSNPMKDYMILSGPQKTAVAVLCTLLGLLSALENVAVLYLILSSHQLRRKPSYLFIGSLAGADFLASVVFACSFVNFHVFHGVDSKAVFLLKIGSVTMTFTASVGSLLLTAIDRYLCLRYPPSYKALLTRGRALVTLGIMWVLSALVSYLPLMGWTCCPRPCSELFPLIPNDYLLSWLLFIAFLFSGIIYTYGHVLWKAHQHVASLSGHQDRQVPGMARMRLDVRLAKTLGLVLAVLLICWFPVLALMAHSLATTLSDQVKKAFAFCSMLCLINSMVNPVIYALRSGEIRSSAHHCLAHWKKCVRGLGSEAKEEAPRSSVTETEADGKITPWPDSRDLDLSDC
Protocol: (§1) Human CB2 receptor affinity. The relative selectivity of the analogs for CB1 versus CB2 receptors varied modestly regardless of the structural modifications examined to date.
Methods—binding assay in transfected cell lines. The methods used for performing binding assays in transfected cells expressing human CB1 or CB2 receptors are those used above. The CB1 receptor involved a HEK-293 expression system whereas the CB2 receptor was expressed in CHO-K1 cells. […] The incubations and separations were then performed as described above for rat brain membrane preparations.
Data analysis. Saturation and displacement data were analyzed by unweighted nonlinear regression of receptor binding data. For displacement studies, curve-fitting and IC50 calculation were done with GraphPad Prism (GraphPad Software, Inc., San Diego, Calif.), which fits the data to one and two-site models and compares the two fits statistically. A similar approach was used for the analysis of isotherm data for calculation of Kd's. A two-site fit was accepted only if it was statistically significant (p<0.05) and the following results were not observed:
IC50 values were then converted to Ki values by reported methods (Cheng and Prusoff, 1973). The statistical evaluation of curve-fitting data allowed for a non-arbitrary conclusion based on the displacement data.

CB1 receptor = target: T4, CB1 receptor (Rattus norvegicus, UniProt P20272); experiment: Radioligand displacement in whole rat brain (CB1) membrane preparations; format: binding; details: Tables 1 and 2
T4 construct: Whole rat brains or dissected regions from live CD rats; tissue Charles River or Pel-Freez Biologicals; host or cells: whole rat brain (CD rats), P2 membrane
T4 sequence (P20272 whole entry): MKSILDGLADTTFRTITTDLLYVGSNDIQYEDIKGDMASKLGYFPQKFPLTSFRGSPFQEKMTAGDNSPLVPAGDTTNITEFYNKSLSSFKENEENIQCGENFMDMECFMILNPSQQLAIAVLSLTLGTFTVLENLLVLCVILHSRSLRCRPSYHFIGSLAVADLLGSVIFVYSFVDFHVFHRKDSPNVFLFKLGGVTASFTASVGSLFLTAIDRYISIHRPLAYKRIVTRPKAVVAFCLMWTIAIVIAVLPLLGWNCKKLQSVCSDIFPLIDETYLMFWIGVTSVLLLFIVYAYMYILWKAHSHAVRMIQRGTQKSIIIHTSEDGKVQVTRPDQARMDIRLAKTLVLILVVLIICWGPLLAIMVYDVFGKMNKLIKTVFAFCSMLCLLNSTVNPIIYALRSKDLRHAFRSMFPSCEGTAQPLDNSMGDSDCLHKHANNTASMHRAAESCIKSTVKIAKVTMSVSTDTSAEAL
How it was run: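 Washed P2 membranes from whole rat brain (ca. 0.2 mg/mL) in 50 mM Tris.HCl, 1 mM EDTA, 3 mM MgCl2, pH 7.4 were incubated with radioligand and compound for 1 h at 30 °C, then filtered. IC50 values came from one- or two-site nonlinear fits and were converted to Ki by Cheng-Prusoff. Duplicates were run across 3–6 experiments.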

[2] = target: T5, G-protein-linked cannabinoid receptors (Rattus norvegicus, UniProt P20272); experiment: GTP-γ-[35S] binding in whole rat brain; format: biochemical; details: for Emax: read-out: Emax, GTP-γ-[35S] in Whole Rat Brain
T5 construct: tissue Charles River or Pel-Freez Biologicals; host or cells: whole rat brain crude membrane homogenate
T5 sequence (P20272 whole entry): as above
Description: Cannabinoid receptor-mediated alteration in GTP-γ-[^35S] binding.
Introduction. The purpose of this assay was to characterize the functional activity of lead compounds identified by the radioligand competition binding assays described above. Data from the GTP-γ-[^35S] binding assay was used to determine if a compound was an agonist, antagonist or inverse agonist at G-protein-linked cannabinoid receptors. Agonist binding to a G-protein-linked receptor results in an increased affinity of the G-protein α-subunit for GTP relative to GDP. Eventually, an active αGTP complex forms to complete the stimulus-effector coupling. The α-subunit has intrinsic GTPase activity which generates a free α-subunit which can recombine with the β- and γ-subunits readying the G-protein for another signal transduction cycle. In the current assay, GTP-γ-[^35S] cannot be hydrolyzed by the α-subunit. Thus, the amount of bound GTP-γ-[^35S] is a marker for G-protein activation. In this assay, an agonist increases basal GTP-γ-[^35S] binding, an inverse agonist decreases basal binding and basal binding would be unaffected by an antagonist.
Experimental Design. The specific binding of GTP-γ-[^35S], in the absence of test compound, was termed “basal” activity. Test compounds were characterized as agonist, antagonist, or inverse agonist based on their effect on basal activity. […] The concentrations spanned two orders of magnitude because affinity may not be related to efficacy. […] Effects of the test compounds are reported as the percent change from basal. More thorough dose-response analysis may be run to determine, for example, if a compound is a full or partial agonist.
Methods. […] In a final volume of 0.5 mL, each assay tube contained: 0.02 mg crude membrane homogenate (0.1 mL), 200 μM GDP (0.05 mL; to reduce basal G-protein activity), 0.1 nM GTP-γ-[^35S] (0.05 mL) and several concentrations of test compound (0.05 mL) or an equivalent volume of vehicle (used for determination of total binding). Nonspecific binding was determined in the presence of 100 μM unlabeled GTP-γ-S (0.05 mL). Duplicate samples were incubated for 1 h at 30° C. Since this assay is amenable for use with high throughput screening methods, the binding assays were run using a 96-well plate format. Specific binding was calculated as total binding-nonspecific binding.

CB1 and CB2 receptors = details: literature, cited from earlier work
CB1 versus CB2 receptors = experiment: Relative selectivity of the analogs for CB1 versus CB2 receptors; details: CB1 versus CB2 binding, Tables 1, 6 and 7
Description: as §1

[3] = human CB1 transfected cells, radioligand 3H-CP55940, Table 3
[4] = read-out: Ki, displacement of 3H-CP55940, human CB2 transfected cells
[5] = read-out: Ki, displacement of 3H-CP55940, whole rat brain membranes, radioligand 3H-CP55940
[6] = read-out: Ki, displacement of 3H-SR141716A, whole rat brain membranes, radioligand 3H-SR141716A
[7] = whole rat brain membranes, radioligand 3H-CP55940
[8] = whole rat brain membranes, radioligand 3H-SR141716A
[9] = Ki, displacement of 3H-SR141716A
[10] = Ki, displacement of 3H-WIN55212-2
[11] = Ki, displacement of 3H-WIN55212-2, whole rat brain membranes, radioligand 3H-WIN55212-2
[12] = whole rat brain membranes, radioligand 3H-WIN55212-2
[13] = EC50, GTP-γ-[35S] in Whole Rat Brain, whole rat brain membranes, inverse agonist/antagonist activity
[14] = whole rat brain membranes, effects reported as percent change from basal

CCOC(=O)c1nn(-c2ccc(Cl)cc2Cl)c(-c2ccc(Cl)cc2)c1C [SH9631-56]
Max. Disp. %, 3H-CP55940 (human CB1 receptor; [3]): 91.0% | pKi (human CB1 receptor; read-out: Ki, displacement of 3H-CP55940): 7.35 | pEC50 [1]: 6.71 | Emax, GTP-γ-[35S] ([1]; percent change from basal): −18.4^c | Max. Disp. %, 3H-CP55940 (human CB2 receptor; human CB2 transfected cells): 51.4% | pKi (human CB2 receptor; [4]): 5.36 | pKi (CB1 receptor; [5]): 7.50 | pKi (CB1 receptor; [6]): 7.54 | Max. Disp. %, 3H-CP55940 (CB1 receptor; [7]): 91.7% | Max. Disp. %, 3H-SR141716A (CB1 receptor; [8]): 96.9%

CCCCCCCCCNC(=O)c1nn(-c2ccc(Cl)cc2Cl)c(-c2ccc(Cl)cc2)c1C [MF10110-10-21]
Max. Disp. %, 3H-CP55940 (human CB1 receptor): 68.8% | Max. Disp. %, 3H-SR141716A (human CB1 receptor): 86.9% | Max. Disp. %, 3H-WIN55212-2 (human CB1 receptor): 28.3% | pKi (human CB1 receptor; Ki, displacement of 3H-CP55940): 6.51 | pKi (human CB1 receptor; [9]): 7.25 | pKi (human CB1 receptor; [10]): 5.45 | pKi (human CB2 receptor; Ki, displacement of 3H-CP55940, human CB2 transfected cells): 4.64 | Max. Disp. %, 3H-CP55940 (human CB2 receptor; human CB2 transfected cells): 53.8% | pKi (CB1 receptor; Ki, displacement of 3H-CP55940, whole rat brain membranes, radioligand 3H-CP55940): 6.48 | pKi (CB1 receptor; Ki, displacement of 3H-SR141716A, whole rat brain membranes, radioligand 3H-SR141716A): 7.05 | pKi (CB1 receptor; [11]): 7.17 | Max. Disp. %, 3H-CP55940 (CB1 receptor; [7]): 79.5% | Max. Disp. %, 3H-SR141716A (CB1 receptor; [8]): 85.8% | Max. Disp. %, 3H-WIN55212-2 (CB1 receptor; [12]): 68.6% | pEC50 [2, 13]: 3.53 | Emax [2]: -20.1%

Cc1c(C(=O)NN2CCCCC2)nn(-c2ccc(Cl)cc2Cl)c1-c1ccc(Cl)cc1 [SR141716A]
Ki for CB1 lower than for CB2 (CB1 and CB2 receptors; selectivity for the CB1 over the CB2 receptor): over 50 fold

Cc1c(C(=O)NCCO)nn(-c2ccc(Cl)cc2Cl)c1-c1ccc(Cl)cc1 [MF9725-93-31]
CB1 selectivity (CB1 versus CB2) (CB1 versus CB2 receptors): 10 fold | Max. Disp. %, 3H-CP55940 (human CB2 receptor; human CB2 transfected cells): 33.3% | pKi (human CB2 receptor; [4]): 5.37 | pKi (CB1 receptor; [5]): 6.41 | pKi (CB1 receptor; [6]): 6.46 | Max. Disp. %, 3H-CP55940 (CB1 receptor; [7]): 73.2% | Max. Disp. %, 3H-SR141716A (CB1 receptor; [8]): 85.5% | Emax [2, 14]: -76.5% | pEC50 ([2]; whole rat brain membranes, value above highest concentration tested (footnote), read-out: EC50, GTP-γ-[35S] in Whole Rat Brain, value is above highest concentration on displacement curve): ≤ 2.78

CCNC(=O)c1nn(-c2ccc(Cl)cc2Cl)c(-c2ccc(Cl)cc2)c1C [MF9725-54C]
pKi (human CB1 receptor; Ki, displacement of 3H-CP55940, human CB1 transfected cells, radioligand 3H-CP55940, Table 3): 6.86 | pKi (human CB1 receptor; Ki, displacement of 3H-SR141716A, human CB1 transfected cells, radioligand 3H-SR141716A, Table 3): 7.45 | pKi (human CB1 receptor; Ki, displacement of 3H-WIN55212-2, human CB1 transfected cells, radioligand 3H-WIN55212-2, Table 3): 6.73 | Max. Disp. %, 3H-CP55940 (human CB1 receptor; [3]): 66.7% | Max. Disp. %, 3H-SR141716A (human CB1 receptor; human CB1 transfected cells, radioligand 3H-SR141716A, Table 3): 95.3% | Max. Disp. %, 3H-WIN55212-2 (human CB1 receptor; human CB1 transfected cells, radioligand 3H-WIN55212-2, Table 3): 78.8% | Max. Disp. %, 3H-CP55940 (human CB2 receptor; human CB2 transfected cells): 59.6% | pKi (human CB2 receptor; [4]): 5.51 | pKi (CB1 receptor; [5]): 7.33 | pKi (CB1 receptor; [6]): 7.21 | Max. Disp. %, 3H-CP55940 (CB1 receptor; [7]): 91.4% | Max. Disp. %, 3H-SR141716A (CB1 receptor; [8]): 100% | Emax [2, 14]: -46.9% | pEC50 ([2]; whole rat brain membranes, inverse agonist/antagonist activity, read-out: EC50, GTP-γ-[35S] in Whole Rat Brain): 4.52

CCCCCNC(=O)c1nn(-c2ccc(Cl)cc2Cl)c(-c2ccc(Cl)cc2)c1C [MF9725-67-17]
Max. Disp. %, 3H-CP55940 (human CB1 receptor): 87.1% | Max. Disp. %, 3H-SR141716A (human CB1 receptor): 89.9% | Max. Disp. %, 3H-WIN55212-2 (human CB1 receptor): 89.9% | pKi (human CB1 receptor; Ki, displacement of 3H-CP55940): 7.84 | pKi (human CB1 receptor; [9]): 8.20 | pKi (human CB1 receptor; [10]): 7.73 | Max. Disp. %, 3H-CP55940 (human CB2 receptor; human CB2 transfected cells): 75.9% | pKi (human CB2 receptor; [4]): 5.95 | pKi (CB1 receptor; [11]): 7.90 | pKi (CB1 receptor; [5]): 7.94 | pKi (CB1 receptor; [6]): 8.17 | Max. Disp. %, 3H-CP55940 (CB1 receptor; [7]): 91.4% | Max. Disp. %, 3H-SR141716A (CB1 receptor; [8]): 100% | Max. Disp. %, 3H-WIN55212-2 (CB1 receptor; [12]): 94.4% | pEC50 [2, 13]: 5.28 | Emax [2]: -7.4%

CCCCCCC(C)(C)c1ccc([C@@H]2C[C@H](O)CC[C@H]2CCCO)c(O)c1 [CP55,940]
affinity at CB1 and CB2 receptor sites (CB1 and CB2 receptors): approximately equal affinity
